Data from patent publication US7025958B2, “Use of amidoamines to treat or prevent acanthamoeba and fungal infections” (Alcon, Inc., priority 2000, dated 2006).

Assays:
Format in all cases: cell-based
[1] = system: Acanthamoeba Strain 1501-3D (NNA cysts); assay: Minimum cysticidal concentration, strain 1501-3D; conditions: 24 hours exposure at 32° C.
Experimental: (§1) Two different vehicles were utilized to prepare solutions containing Compound No. 4. The first vehicle was the same as the vehicle described in Formulation No. 4 (see Example 2, above), and the second vehicle was a 2 mM TRIS. HCl solution (pH 7.8).
(§2) Minimum cysticidal levels of Compound No. 4 for Acanthamoeba keratitis strains was determined as follows. Briefly, 100 μl serial, two-fold dilutions were prepared across the rows of a microtitre plate. Control wells received only diluent. An equal volume of five strains of Acanthamoba cysts were added to the wells and the plates sealed and incubated at 32° C. for 24 hours. Using a multi-channel pipette, the solutions in the wells were removed and replaced with 200 μl of ¼ strength Lactated Ringer's solution and left at room temperature for 15 minutes. The washing procedure was repeated twice more before finally filling the wells with 100 μl of ¼ strength Lactated Ringer's solution containing live E. coli at an O.D.540 of 0.2. The plates were then sealed and incubated at 32° C. for up to 7 days.
(§3) The MCC values for Compound No. 4 and chlorhexidine against the five Acanthamoeba strains (NNA cysts) tested are set forth in Table 4, below.

[2] = system: Acanthamoeba Strain 1501-2g (NNA cysts); assay: Minimum cysticidal concentration, strain 1501-2g; conditions: 24 hours exposure at 32° C.
Experimental: as §1, §2, §3

[3] = system: Acanthamoeba polyphaga cysts (ATCC 30871); assay: Dose/response of survivors, Acanthamoeba polyphaga cysts in Mueller Hinton Broth
Experimental: (§4) A 0.1% stock solution of Compound No. 4 was prepared. The compound was dissolved in TRIS buffer^1 by gently heating and swirling. The final pH was adjusted to 7.8 with 1N HCl. […] To prepare the samples, a 0.1% stock solution of Compound No. 4 was serially diluted in Mueller Hinton Broth (MHB)^2,3 (BBL) to provide concentrations of 0.01 w/v %, 0.001 w/v %, 0.0001 w/v %, and 0.00001 w/v %, respectively. Solutions containing 0.02 w/v % polyhexamethylene biguanide (PHMP) and 0.1 w/v % chlorhexidine, respectively, were also utilized as controls.
The samples were inoculated with low levels (approximately 3.0×10^2 organisms/mL) of the test organism. The test organism was Acanthamoeba polyphaga cysts (ATCC 30871) produced 14 days in. PYG and then 14 days in Page's saline, followed by one month of refrigeration. The samples were checked for survivors at 4, 24, and 48 hours post inoculation. The samples were serially diluted in Dey-Engley neutralizing broth (DE) (Difco) and plated in quadruplicate in tissue culture plate wells containing non-nutrient agar overlaid with E. coli. Plates were sealed and incubated for 14 days at 30-35° C. Results were recorded and counts calculated using the Reed and Muench computation.

[4] = system: Acanthamoeba Strain Ros (NNA cysts); assay: Minimum cysticidal concentration, strain Ros; conditions: 24 hours exposure at 32° C.
Experimental: as §1, §2, §3

[5] = system: Acanthamoeba Strain Uni Tap Water 1501-3D (NNA cysts); assay: Minimum cysticidal concentration, strain Uni Tap Water 1501-3D; conditions: 24 hours exposure at 32° C.
Experimental: as §1, §2, §3

[6] = system: Acanthamoeba Strain Watson (NNA cysts); assay: Minimum cysticidal concentration, strain Watson; conditions: 24 hours exposure at 32° C.
Experimental: as §1, §2, §3

F. solani ATCC 36031 = assay: Dose/response of survivors against fungi, F. solani
Experimental: as §4, with “provide solutions containing Compound No. 4 in” for “provide”, “PHMB” for “polyhexamethylene biguanide (PHMP)”, “were” for “were also”
(§5) The samples were inoculated with low levels (approximately 1.0×10^3 organisms/mL) of the test organism. The test organisms included the fungi C. albicans ATCC 10231 and F. solani ATCC 36031. The samples were checked for survivors at 4, 24, and 48 hours post inoculation. The samples were serially diluted in Dey Engley neutralizing broth (DE) (Difco) and plated in duplicate using trypicase soy agar containing 0.07% asolectin and 0.5% Tween 80. The plates were incubated for 5 days at 20-25° C. and plate counts recorded.

C. albicans ATCC 10231 = assay: Dose/response of survivors against fungi, C. albicans
Experimental: as §4, with “provide solutions containing Compound No. 4 in” for “provide”, “PHMB” for “polyhexamethylene biguanide (PHMP)”, “were” for “were also”
as §5

[7] = 0.00001% Compound No. 4, 0 hours
[8] = 0.00001% Compound No. 4, 4 hours
[9] = 0.00001% Compound No. 4, 24 hours
[10] = 0.00001% Compound No. 4, 48 hours
[11] = 0.0001% Compound No. 4, 0 hours
[12] = 0.0001% Compound No. 4, 4 hours
[13] = 0.0001% Compound No. 4, 24 hours
[14] = 0.0001% Compound No. 4, 48 hours
[15] = 0.001% Compound No. 4, 24 hours
[16] = 0.001% Compound No. 4, 48 hours

## [H]/N=C(\N/C(=N/[H])NCCCCCCNC(=N)NC(=N)Nc1ccc(Cl)cc1)Nc1ccc(Cl)cc1 [Chlorhexidine, chlorhexidine, reference compound]
[1]
  Minimum Cysticidal Concentration: 31.3 micrograms/milliliter
[2]
  Minimum Cysticidal Concentration: 52.1 micrograms/milliliter
[3]; 0.1% Chlorhexidine, 0 hrs
  Number of Surviving Organisms: 3.2 × 10^2
[3]; 0.1% Chlorhexidine, 4 hrs
  Number of Surviving Organisms: <10
[3]; 0.1% Chlorhexidine, 24 hrs
  Number of Surviving Organisms: <10
[3]; 0.1% Chlorhexidine, 48 hrs
  Number of Surviving Organisms: <10
[4]
  Minimum Cysticidal Concentration: 31.25 micrograms/milliliter
[5]
  Minimum Cysticidal Concentration: 26.0 micrograms/milliliter
[6]
  Minimum Cysticidal Concentration: 62.5 micrograms/milliliter
F. solani ATCC 36031; 0.1% Chlorhexidine, 0 hours
  Number of Surviving Organisms: 4.9 × 10^3
F. solani ATCC 36031; 0.1% Chlorhexidine, 4 hours
  Number of Surviving Organisms: <1
F. solani ATCC 36031; 0.1% Chlorhexidine, 24 hours
  Number of Surviving Organisms: <1
F. solani ATCC 36031; 0.1% Chlorhexidine, 48 hours
  Number of Surviving Organisms: <1
C. albicans ATCC 10231; 0.1% Chlorhexidine, 0 hours
  Number of Surviving Organisms: 3.3 × 10^3
C. albicans ATCC 10231; 0.1% Chlorhexidine, 4 hours
  Number of Surviving Organisms: <1
C. albicans ATCC 10231; 0.1% Chlorhexidine, 24 hours
  Number of Surviving Organisms: <1
C. albicans ATCC 10231; 0.1% Chlorhexidine, 48 hours
  Number of Surviving Organisms: <1

## CCCCCCCCCCCCCC(=O)NCCCN(C)C [Compound No. 4, N,N-Dimethyl-N′-tetradecanoyl-1,3-propylenediamine]
[3]; 0.00001% Compound No. 4, 0 hrs
  Number of Surviving Organisms: 3.2 × 10^2
[3]; 0.00001% Compound No. 4, 4 hrs
  Number of Surviving Organisms: 3.2 × 10^3
[3]; 0.00001% Compound No. 4, 24 hrs
  Number of Surviving Organisms: 3.2 × 10^3
[3]; 0.00001% Compound No. 4, 48 hrs
  Number of Surviving Organisms: 3.2 × 10^3
[3]; 0.0001% Compound No. 4, 0 hrs
  Number of Surviving Organisms: 3.2 × 10^2
[3]; 0.0001% Compound No. 4, 4 hrs
  Number of Surviving Organisms: 3.2 × 10^3
[3]; 0.0001% Compound No. 4, 24 hrs
  Number of Surviving Organisms: 2.1 × 10^3
[3]; 0.0001% Compound No. 4, 48 hrs
  Number of Surviving Organisms: 2.1 × 10^3
[3]; 0.001% Compound No. 4, 0 hrs
  Number of Surviving Organisms: 3.2 × 10^2
[3]; 0.001% Compound No. 4, 4 hrs
  Number of Surviving Organisms: 3.2 × 10^2
[3]; 0.001% Compound No. 4, 24 hrs
  Number of Surviving Organisms: 1.7 × 10^1
[3]; 0.001% Compound No. 4, 48 hrs
  Number of Surviving Organisms: <10
[3]; 0.01% Compound No. 4, 0 hrs
  Number of Surviving Organisms: 3.2 × 10^2
[3]; 0.01% Compound No. 4, 4 hrs
  Number of Surviving Organisms: <10
[3]; 0.01% Compound No. 4, 24 hrs
  Number of Surviving Organisms: <10
[3]; 0.01% Compound No. 4, 48 hrs
  Number of Surviving Organisms: <10
F. solani ATCC 36031; [7]
  Number of Surviving Organisms: 4.9 × 10^3
F. solani ATCC 36031; [8]
  Number of Surviving Organisms: 5.9 × 10^3
F. solani ATCC 36031; [9]
  Number of Surviving Organisms: 1.0 × 10^4
F. solani ATCC 36031; [10]
  Number of Surviving Organisms: 4.8 × 10^3
F. solani ATCC 36031; [11]
  Number of Surviving Organisms: 4.9 × 10^3
F. solani ATCC 36031; [12]
  Number of Surviving Organisms: 6.9 × 10^3
F. solani ATCC 36031; [13]
  Number of Surviving Organisms: 9.5 × 10^3
F. solani ATCC 36031; [14]
  Number of Surviving Organisms: 1.6 × 10^4
F. solani ATCC 36031; 0.001% Compound No. 4, 0 hours
  Number of Surviving Organisms: 4.9 × 10^3
F. solani ATCC 36031; 0.001% Compound No. 4, 4 hours
  Number of Surviving Organisms: 1.0 × 10^1
F. solani ATCC 36031; [15]
  Number of Surviving Organisms: <1
F. solani ATCC 36031; [16]
  Number of Surviving Organisms: <1
F. solani ATCC 36031; 0.01% Compound No. 4, 0 hours
  Number of Surviving Organisms: 4.9 × 10^3
F. solani ATCC 36031; 0.01% Compound No. 4, 4 hours
  Number of Surviving Organisms: <1
F. solani ATCC 36031; 0.01% Compound No. 4, 24 hours
  Number of Surviving Organisms: <1
F. solani ATCC 36031; 0.01% Compound No. 4, 48 hours
  Number of Surviving Organisms: <1
C. albicans ATCC 10231; [7]
  Number of Surviving Organisms: 3.3 × 10^3
C. albicans ATCC 10231; [8]
  Number of Surviving Organisms: 3.2 × 10^3
C. albicans ATCC 10231; [9]
  Number of Surviving Organisms: 2.5 × 10^4
C. albicans ATCC 10231; [10]
  Number of Surviving Organisms: 1.3 × 10^5
C. albicans ATCC 10231; [11]
  Number of Surviving Organisms: 3.3 × 10^3
C. albicans ATCC 10231; [12]
  Number of Surviving Organisms: 3.2 × 10^3
C. albicans ATCC 10231; [13]
  Number of Surviving Organisms: 1.5 × 10^4
C. albicans ATCC 10231; [14]
  Number of Surviving Organisms: 1.3 × 10^5
C. albicans ATCC 10231; 0.001% Compound No. 4, 0 hours
  Number of Surviving Organisms: 3.3 × 10^3
C. albicans ATCC 10231; 0.001% Compound No. 4, 4 hours
  Number of Surviving Organisms: 4.3 × 10^1
C. albicans ATCC 10231; [15]
  Number of Surviving Organisms: 1.0 × 10^1
C. albicans ATCC 10231; [16]
  Number of Surviving Organisms: 3.4 × 10^1
C. albicans ATCC 10231; 0.01% Compound No. 4, 0 hours
  Number of Surviving Organisms: 3.3 × 10^3
C. albicans ATCC 10231; 0.01% Compound No. 4, 4 hours
  Number of Surviving Organisms: <1
C. albicans ATCC 10231; 0.01% Compound No. 4, 24 hours
  Number of Surviving Organisms: <1
C. albicans ATCC 10231; 0.01% Compound No. 4, 48 hours
  Number of Surviving Organisms: <1

## polyhexamethylene biguanide [PHMB, reference compound]
[3]; 0.02% PHMB, 0 hrs
  Number of Surviving Organisms: 3.2 × 10^2
[3]; 0.02% PHMB, 4 hrs
  Number of Surviving Organisms: <10
[3]; 0.02% PHMB, 24 hrs
  Number of Surviving Organisms: <10
[3]; 0.02% PHMB, 48 hrs
  Number of Surviving Organisms: <10
F. solani ATCC 36031; 0.02% PHMB, 0 hours
  Number of Surviving Organisms: 4.9 × 10^3
F. solani ATCC 36031; 0.02% PHMB, 4 hours
  Number of Surviving Organisms: <1
F. solani ATCC 36031; 0.02% PHMB, 24 hours
  Number of Surviving Organisms: <1
F. solani ATCC 36031; 0.02% PHMB, 48 hours
  Number of Surviving Organisms: <1
C. albicans ATCC 10231; 0.02% PHMB, 0 hours
  Number of Surviving Organisms: 3.3 × 10^3
C. albicans ATCC 10231; 0.02% PHMB, 4 hours
  Number of Surviving Organisms: <1
C. albicans ATCC 10231; 0.02% PHMB, 24 hours
  Number of Surviving Organisms: <1
C. albicans ATCC 10231; 0.02% PHMB, 48 hours
  Number of Surviving Organisms: <1
